Assay results: US20250074888A1, “PYRIDAZINE DERIVATIVES AS MODULATORS OF NLRP3 INFLAMMASOME AND RELATED METHODS” (Neumora Therapeutics, Inc., priority 2021, published 2025)

Key:
IL-6 = IL-6 release from LPS-primed, nigericin-treated THP1 macrophages, Hu IL-6 AlphaLISA; type: cell-based; conditions: Homo sapiens, THP-1; PMA-differentiated THP1, LPS 20 ng/ml 3 hrs, compound 1 hr, Nigericin 6.7 uM 3 hrs, supernatant
NLRP3 inflammasome = NLRP3 inflammasome (Homo sapiens, UniProt Q96P20); assay: NLRP3 inflammasome activation in THP1 macrophages (LPS priming, nigericin), IL-1β AlphaLISA; type: cell-based; conditions: PMA-differentiated THP1, LPS 20 ng/ml 3 hrs, compound 1 hr, Nigericin 6.7 uM 3 hrs, supernatant
NLRP3 inflammasome, sequence (Q96P20 whole entry): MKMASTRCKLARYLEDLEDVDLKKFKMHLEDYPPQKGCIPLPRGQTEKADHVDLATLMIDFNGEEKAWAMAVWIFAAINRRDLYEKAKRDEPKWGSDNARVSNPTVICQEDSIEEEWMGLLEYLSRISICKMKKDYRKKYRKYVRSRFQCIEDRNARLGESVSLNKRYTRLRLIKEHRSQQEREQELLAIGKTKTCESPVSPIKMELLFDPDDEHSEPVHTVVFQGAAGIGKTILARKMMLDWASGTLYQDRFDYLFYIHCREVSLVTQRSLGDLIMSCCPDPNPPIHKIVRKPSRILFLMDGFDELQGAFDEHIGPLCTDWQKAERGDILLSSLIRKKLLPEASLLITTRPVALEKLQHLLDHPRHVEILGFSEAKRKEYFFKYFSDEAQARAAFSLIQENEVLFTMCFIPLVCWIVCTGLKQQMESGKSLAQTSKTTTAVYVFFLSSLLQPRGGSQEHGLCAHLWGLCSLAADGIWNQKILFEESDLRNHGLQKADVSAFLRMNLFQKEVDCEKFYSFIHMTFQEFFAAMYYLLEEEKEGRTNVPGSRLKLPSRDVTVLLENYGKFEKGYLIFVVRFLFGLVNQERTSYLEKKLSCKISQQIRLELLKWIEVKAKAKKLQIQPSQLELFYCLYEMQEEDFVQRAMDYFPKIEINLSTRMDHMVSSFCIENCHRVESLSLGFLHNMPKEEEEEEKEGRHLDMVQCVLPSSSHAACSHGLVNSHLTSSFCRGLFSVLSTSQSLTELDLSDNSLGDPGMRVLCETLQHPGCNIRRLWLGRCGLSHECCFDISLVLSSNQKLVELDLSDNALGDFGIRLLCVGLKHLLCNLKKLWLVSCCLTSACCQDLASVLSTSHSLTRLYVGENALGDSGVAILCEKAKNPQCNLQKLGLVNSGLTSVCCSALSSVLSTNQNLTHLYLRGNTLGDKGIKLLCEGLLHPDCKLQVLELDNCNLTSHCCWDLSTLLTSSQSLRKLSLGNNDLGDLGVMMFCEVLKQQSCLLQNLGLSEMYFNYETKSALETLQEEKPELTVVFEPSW

SMILES | IC50 (IL-6) | IC50 (NLRP3 inflammasome)
Cc1cc(O[C@@H]2CCCN(C)C2)nnc1-c1ccc(Cl)cc1 [compound 210] | > 10000 nM | 100 to 500 nM
Cc1cc(-c2ccc(C3CCC3)cc2)nnc1N[C@@H]1CCCN(C)C1 [compound 95] | 5000 to 10000 nM | > 1000 nM
Cc1cc(F)ccc1-c1nnc(N[C@@H]2CCCN(C)C2)cc1C [compound 132] | > 10000 nM | 10 to 50 nM
Cc1cc(-c2ccc(Cl)cc2C(F)(F)F)nnc1N[C@@H]1CCCN(C)C1 [compound 170] | > 10000 nM | 10 to 50 nM
Cc1cc(C(F)(F)F)ccc1-c1nnc(N[C@@H]2CCCN(C)C2)cc1C [compound 9] | 1000 to 5000 nM | 10 to 50 nM
CN1CCC[C@@H](Nc2cc(F)c(-c3ccc(C(F)(F)F)cc3)nn2)C1 [compound 143] | > 10000 nM | 10 to 50 nM
Cc1cc(N[C@@H]2CCN(C)C2)nnc1-c1ccc(F)cc1 [compound 183] | > 10000 nM | 100 to 500 nM
CN1CCC[C@@H](Nc2nnc(-c3ccc(F)cc3)cc2C(F)(F)F)C1 [compound 148] | > 10000 nM | > 1000 nM
Cc1cc(-c2cc(C)c(N[C@@H]3CCCN(C)C3)nn2)ccc1F [compound 112] | > 10000 nM | > 1000 nM
Cc1cc(N[C@H]2CN(C)CC[C@@H]2F)nnc1-c1ccc(C(F)(F)F)cc1 [compound 136] | 5000 to 10000 nM | 50 to 100 nM
Cc1cc(N[C@@H]2C[C@@H](F)CN(C(C)C)C2)nnc1-c1ccc(Cl)cc1 [compound 152] | > 10000 nM | 10 to 50 nM
Cc1cc(N[C@@H]2C[C@@H](F)CN(C)C2)nnc1-c1ccc(C(F)(F)F)cc1 [compound 17] | > 10000 nM | 50 to 100 nM
Cc1cc(-c2ccc(C#N)cc2)nnc1N[C@@H]1CCCN(C)C1 [compound 80] | > 10000 nM | > 1000 nM
Cc1cc(N[C@@H]2CCCN(C)C2)nnc1-c1ccc(Cl)c(F)c1 [compound 145] | > 10000 nM | 50 to 100 nM
COc1cc(-c2ccc(C(F)(F)F)cc2)nnc1N[C@@H]1CCCN(C)C1 [compound 102] | > 10000 nM | > 1000 nM
CCN1C[C@H](F)C[C@@H](Nc2cc(C)c(-c3ccc(Cl)cc3)nn2)C1 [compound 151] | 1000 to 5000 nM | > 1000 nM
Cc1cc(N[C@@H]2CCCN(C)C2)nnc1-c1ccc(C(F)(F)F)c(Cl)c1 [compound 39] | > 10000 nM | 500 to 1000 nM
Cc1cc(-c2ccc(F)cc2F)nnc1N[C@@H]1CCCN(C)C1 [compound 98] | > 10000 nM | > 1000 nM
CN1CCC[C@@H](Nc2ccc(-c3ccc(C(F)(F)F)cc3Cl)nn2)C1 [compound 20] | > 10000 nM | 100 to 500 nM
Cc1cc(-c2ccc(C(F)(F)F)cc2F)nnc1N[C@@H]1CCCN(C)C1 [compound 29] | > 10000 nM | 100 to 500 nM
CN1CCC[C@@H](Nc2ccc(-c3ccc(Cl)cc3Cl)nn2)C1 [compound 18] | 5000 to 10000 nM | 50 to 100 nM
Cc1cc(F)ccc1-c1cc(C)c(N[C@@H]2CCCN(C)C2)nn1 [compound 133] | > 10000 nM | 10 to 50 nM
Cc1cc(N[C@@H]2C[C@H](F)CN(C)C2)nnc1-c1ccc(F)cc1 [compound 139] | 5000 to 10000 nM | 500 to 1000 nM

SMILES | IC50 (IL-6) | IC50 (NLRP3 inflammasome)
Cc1cc(-c2ccc(C(F)(F)F)cc2)nnc1N[C@H]1CN(C)CC[C@H]1F [compound 88] | > 10000 nM | > 1000 nM
Cc1cc(N[C@@H]2CCCN(C)C2)nnc1-c1cccc(C(C)C)c1 [compound 37] | > 10000 nM | 500 to 1000 nM
Cc1cc(N[C@@H]2CCCN(C)C2)nnc1-c1ccc(C(F)(F)F)cc1 [compound 3, (R)-5-methyl-N-(1-methylpiperidin-3-yl)-6-(4-(trifluoromethyl)phenyl)-pyridazin-3-amine] | 5000 to 10000 nM | 10 to 50 nM
Cc1cc(-c2nnc(N[C@@H]3CCCN(C)C3)cc2C)ccc1Cl [compound 162] | > 10000 nM | 10 to 50 nM
Cc1cc(-c2ccccc2C#N)nnc1N[C@@H]1CCCN(C)C1 [compound 90] | > 10000 nM | > 1000 nM
Cc1cc(N[C@@H]2CCCN(C)C2)nnc1-c1ccc(C(F)(F)F)cc1F [compound 6] | > 10000 nM | 10 to 50 nM
CCc1cc(-c2ccc(C(F)(F)F)cc2)nnc1N[C@@H]1CCCN(C)C1 [compound 30] | > 10000 nM | 100 to 500 nM
Cc1cc(N[C@@H]2CCCN(C)C2)nnc1-c1ccc(Cl)cc1C#N [compound 168] | 5000 to 10000 nM | 10 to 50 nM
Cc1cc(N[C@@H]2CCCN(C)C2)nnc1-c1ccc(F)cc1F [compound 27] | > 10000 nM | 100 to 500 nM
Cc1cc(-c2ccc(C(F)(F)F)cc2)nnc1O[C@@H]1CCCN(C)C1 [compound 178] | 1000 to 5000 nM | > 1000 nM
Cc1cc(N[C@H]2CCCN(C(C)C)C2)nnc1-c1ccc(C(F)(F)F)cc1 [compound 131] | > 10000 nM | 500 to 1000 nM
CCc1cc(N[C@@H]2CCCN(C)C2)nnc1-c1ccc(C(F)(F)F)cc1 [compound 10] | 5000 to 10000 nM | 10 to 50 nM
Cc1cc(-c2ccc(Cl)cc2C(F)F)nnc1N[C@@H]1CCCN(C)C1 [compound 175] | > 10000 nM | ≤ 10 nM
Cc1cc(-c2ccc(F)cc2)nnc1O[C@@H]1CCCN(C)C1 [compound 180] | > 10000 nM | > 1000 nM
Cc1cc(N[C@@H]2CCCN(C)C2)nnc1-c1ccc(C(F)(F)F)cc1C#N [compound 40] | 5000 to 10000 nM | 50 to 100 nM
CN1CCC[C@@H](Nc2nnc(-c3ccc(C(F)(F)F)cc3)cc2C(F)(F)F)C1 [compound 111] | > 10000 nM | > 1000 nM
Cc1cc(N[C@H]2CN(C)CC(F)(F)C2)nnc1-c1ccc(C(F)(F)F)cc1 [compound 69] | > 10000 nM | 50 to 100 nM
Cc1cc(N[C@@H]2C[C@@H](F)CN(C)C2)nnc1-c1ccc(F)cc1 [compound 140] | > 10000 nM | > 1000 nM
Cc1cc(N[C@@H]2CCCN(C)C2)nnc1-c1ccc(Cl)cc1Cl [compound 171] | > 10000 nM | ≤ 10 nM
Cc1ccccc1-c1nnc(N[C@@H]2CCCN(C)C2)cc1C [compound 87] | > 10000 nM | > 1000 nM
Cc1cc(Cl)ccc1-c1ccc(N[C@@H]2CCCN(C)C2)nn1 [compound 125] | > 10000 nM | 50 to 100 nM
Cc1cc(N[C@@H]2CCCN(C)C2)nnc1-c1ccc(C#N)cc1 [compound 31] | > 10000 nM | 100 to 500 nM
Cc1cc(Cl)ccc1-c1nnc(N(C)[C@@H]2CCCN(C)C2)cc1C [compound 204] | > 10000 nM | 500 to 1000 nM

SMILES | IC50 (IL-6) | IC50 (NLRP3 inflammasome)
CCN1CCC[C@@H](Nc2cc(C)c(-c3ccc(C(F)(F)F)cc3)nn2)C1 [compound 1] | > 10000 nM | ≤ 10 nM
CCc1cccc(-c2cc(C)c(N[C@@H]3CCCN(C)C3)nn2)c1 [compound 78] | > 10000 nM | > 1000 nM
Cc1cc(N[C@@H]2CCCN(C)C2)nnc1-c1cccc(C#N)c1 [compound 50] | > 10000 nM | > 1000 nM
Cc1cc(N[C@@H]2CCCN(C)C2)nnc1-c1ccc(Cl)cc1C(F)(F)F [compound 169] | > 10000 nM | 10 to 50 nM
Cc1cc(N[C@@H]2CCCN(C)C2)nnc1-c1ccc(F)c(C#N)c1 [compound 108] | > 10000 nM | > 1000 nM
Cc1cc(N[C@@H]2CCCN(C)C2)nnc1-c1ccc(OC(F)(F)F)cc1 [compound 7] | > 10000 nM | 10 to 50 nM
Cc1cc(N[C@@H]2CCCN(C3CC3)C2)nnc1-c1ccc(C(F)(F)F)cc1 [compound 68] | > 10000 nM | ≤ 10 nM
Cc1cc(-c2ccc(OC(F)(F)F)cc2)nnc1N[C@@H]1CCCN(C)C1 [compound 81] | > 10000 nM | > 1000 nM
Cc1cc(N[C@@H]2CCCN(C)C2)nnc1-c1ccccc1C#N [compound 89] | > 10000 nM | > 1000 nM
CN1CCC[C@@H](Nc2cc(C(F)(F)F)c(-c3ccc(F)cc3)nn2)C1 [compound 192] | > 10000 nM | ≤ 10 nM
CCN1CCC[C@@H](Nc2cc(C)c(-c3ccc(F)cc3)nn2)C1 [compound 122] | > 10000 nM | 10 to 50 nM
Cc1cc(O[C@@H]2CCCN(C)C2)nnc1-c1ccc(F)cc1 [compound 179] | > 10000 nM | > 1000 nM
Cc1c(-c2ccc(C(F)(F)F)cc2)nnc(N[C@@H]2CCCN(C)C2)c1O [compound 191] | > 10000 nM | 10 to 50 nM
Cc1cc(-c2ccc(C(F)(F)F)cc2)nnc1N[C@@H]1CCCN(C)C1 [compound 36] | > 10000 nM | 500 to 1000 nM
Cc1cc(N[C@@H]2CCCN(C)C2)nnc1-c1ccc(F)cc1 [compound 16] | > 10000 nM | 10 to 50 nM
Cc1cc(Cl)ccc1-c1cc(C)c(N[C@@H]2CCCN(C)C2)nn1 [compound 124] | 5000 to 10000 nM | 10 to 50 nM
Cc1cc(N[C@@H]2CCCN(C)C2)nnc1-c1ccc(F)cc1C(F)F [compound 203] | > 10000 nM | 10 to 50 nM
COc1cc(C(F)(F)F)ccc1-c1cc(C)c(N[C@@H]2CCCN(C)C2)nn1 [compound 35] | > 10000 nM | 500 to 1000 nM
Cc1c(N[C@@H]2CCCN(C)C2)nnc(-c2ccc(C(F)(F)F)cc2)c1C [compound 14] | > 10000 nM | 10 to 50 nM
Cc1cc(-c2cccc(C#N)c2)nnc1N[C@@H]1CCCN(C)C1 [compound 51] | > 10000 nM | > 1000 nM
Cc1cc(N[C@H]2CN(C)CC[C@H]2F)nnc1-c1ccc(C(F)(F)F)cc1 [compound 74, N-((3S,4R)-4-fluoro-1-methylpiperidin-3-yl)-5-methyl-6-(4-(trifluoromethyl)-phenyl)pyridazin-3-amine] | > 10000 nM | > 1000 nM
Cc1ccc(-c2nnc(N[C@@H]3CCCN(C)C3)cc2C(F)(F)F)cc1 [compound 13] | 5000 to 10000 nM | 50 to 100 nM
Cc1ccccc1-c1ccc(N[C@@H]2CCCN(C)C2)nn1 [compound 85] | > 10000 nM | > 1000 nM
